What all share (format): cell-based
For test [1], the target named is T1, human calcitonin receptor (CTR) and RAMP3 (AMY3) (Homo sapiens, UniProt O60896+P30988). Kind of test: Amylin Receptor cAMP Assay I. The note with it: COS-7/AMY3 cells, cAMP Hi-range Kit, read-out: Amylin Receptor cAMP Stimulation Activity: EC50. An excerpt:
Amylin Receptor cAMP Assay I
AMYRs are heterodimers of the class B calcitonin (CT) G-protein-coupled receptor (CTR) and receptor activity-modifying proteins (RAMPs). All three RAMPs can interact with the CTR and form AMY1, AMY2, AMY3 with RAMP1, RAMP2 and RAMP3, respectively. Like other class B1 GPCRs, the CT receptor family is canonically coupled to Gs-mediated cAMP production, and measurement of cAMP accumulation has been the primary assay used to determine peptide selectivity and potency.
To optimize functional activity directed toward Gas coupling, COS-7 cells were stably transfected with human calcitonin receptor (CTR) and RAMP3, simultaneously. 100×concentration of compound working solutions were prepared (Agilent Technologies Bravo) with 4-fold serial dilution in 384-well Echo LDV plate (Labcyte, Cat #LP-0200). 100 nL/well 100× concentration of compound working solutions were moved to 384-well white low volume plate (Greiner, Cat #784075) using Labcyte ECHO550. 1×10^5 cells/mL COS-7/CTR or COS-7/AMY3 (HD Biosciences) cell suspensions prepared with assay buffer [DPBS containing 0.5 mM IBMX (Sigma, Cat #15879) and 0.1% BSA (GENVIEW, Cat #FAO16-100 g)], 10 μL cell suspensions were added to each well of previous generated assay plate which already contains 100 nL compound at 100× concentration using ThermoFisher Multidrop Combi (1000 cells/well). Seal the plate and incubate at 37° C. with 5% CO2 for 30 min.
After incubation, the cAMP assay signal was generated using cAMP Hi-range Kit (Cisbio). 5 μL cAMP-d2 working solution was added to each well, followed by 5 μL Anti-cAMP antibody-cryptate working solution which was added to each well using ThermoFisher Multidrop Combi. The samples were then incubated at room temperature for 1 hour protected from light. the fluorescence was read at 665 and 615 nm with Reader PerkinElmer EnVision.

Test [2] concerns the target T1, human calcitonin receptor (CTR) and RAMP3 (AMY3). Kind of test: Amylin Receptor cAMP Assay II. The note with it: COS-7/AMY3 cells, cAMP dynamic 2 kit, read-out: Amylin Receptor cAMP Stimulation Activity: EC50. Put shortly: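 COS-7 cells stably co-expressing human CTR and RAMP3 (AMY3) were treated with 4-fold serially diluted compounds at 2000 cells/well in HBSS with 20 mM HEPES, 0.5 mM IBMX and 0.1% casein for 30 min at 37 °C. cAMP was measured by HTRF (cAMP-d2 plus anti-cAMP cryptate, 1 h at RT) with reads at 665/615 nm.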

The target in test [3] is T2, human calcitonin receptor (CTR) (Homo sapiens, UniProt P30988).
T2 construct: expressed in transfected cells; host or cells: COS-7 (COS7-human CTR Clone #2)
T2 sequence (P30988 25-474): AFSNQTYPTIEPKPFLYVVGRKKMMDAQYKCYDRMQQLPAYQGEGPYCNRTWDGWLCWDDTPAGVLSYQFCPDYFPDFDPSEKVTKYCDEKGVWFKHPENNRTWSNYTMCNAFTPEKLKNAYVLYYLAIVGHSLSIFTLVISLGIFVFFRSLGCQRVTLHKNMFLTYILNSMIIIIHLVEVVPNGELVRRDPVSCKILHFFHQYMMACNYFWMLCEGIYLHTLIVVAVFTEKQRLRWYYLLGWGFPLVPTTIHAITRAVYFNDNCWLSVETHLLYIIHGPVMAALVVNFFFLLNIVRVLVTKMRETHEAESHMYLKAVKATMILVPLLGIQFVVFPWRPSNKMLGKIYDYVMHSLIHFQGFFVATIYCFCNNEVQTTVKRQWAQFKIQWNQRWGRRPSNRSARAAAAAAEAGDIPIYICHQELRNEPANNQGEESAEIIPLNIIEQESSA
Kind of test: Calcitonin receptor (CTR) cAMP Assay. The note with it: COS7-human CTR Clone #2 cells, cAMP dynamic 2 kit; read-out: Calcitonin Receptor cAMP Stimulation Activity: EC50. The method in brief: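 COS-7 cells stably expressing human CTR (2000 cells/well) treated with 4-fold serially diluted compounds in HBSS/20 mM HEPES/0.5 mM IBMX/0.1% casein, 30 min at 37° C. cAMP quantified by HTRF (cAMP-d2 plus anti-cAMP cryptate, 1 h RT), fluorescence read at 665 and 615 nm.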

Molecules are shown by their SMILES.

T1 sequence (O60896 24-148, one chain of several): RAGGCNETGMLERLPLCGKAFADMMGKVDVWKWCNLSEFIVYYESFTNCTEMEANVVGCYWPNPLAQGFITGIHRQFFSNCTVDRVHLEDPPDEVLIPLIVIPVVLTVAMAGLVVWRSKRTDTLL

As for `CO[C@H]1C[C@@H](NC(=O)c2ccc(-c3c4c(nc(CCc5ccc(F)cc5)c3-c3nnc(C)o3)[C@@H]3CCCN3C4=O)s2)c2ccccc21` (stereo in doubt) [Compound 30, N-[(1R,3S)-3-methoxy-1-indanyl]-5-{(2S,6R)-11-[2-(p-fluorophenyl)ethyl]-10-(5-methyl-1,3,4-oxadiazol-2-yl)-7-oxo-6,12-diazatricyclo[6.4.0^2,^6]dodeca-1(8),9,11-trien-9-yl}-2-thenamide], the 50% effective concentration (EC50) – broadly, the concentration needed to bring the measured effect to its halfway point – in test [1] amounted to 63.5 nM.
On to `CO[C@@H]1C[C@@H](NC(=O)c2ccc(-c3c4c(nc(CCc5ccc(F)cc5)c3-c3nnc(C)o3)[C@@H]3CCCN3C4=O)s2)c2ccccc21` (stereo in doubt) [Compound 48], for which the concentration giving a half-maximal response (EC50) in test [1] worked out at 321 nM.
The same measure, in the same setting: the value for `COc1cccc2c1CC[C@H]2NC(=O)c1ccc(-c2c3c(nc(CCc4ccc(F)cc4)c2-c2nnc(C)o2)[C@H](C(C)C)NC3=O)s1` [Compound 3, N—[(R)-4-methoxy-1-indanyl]-5-{(S)-5-[2-(p-fluorophenyl)ethyl]-3-isopropyl-6-(5-methyl-1,3,4-oxadiazol-2-yl)-1-oxo-2,4-diaza-7-indanyl)-2-thenamide] was 70.2 nM; that for `Cc1nnc(-c2c(CCc3ccccc3)nc3c(c2-c2ccc(C(=O)NCc4ccc(F)c(F)c4)s2)C(=O)N2CCC[C@@H]32)o1` [Compound 5, (S)—N-(3,4-difluorobenzyl)-5-(3-(5-methyl-1,3,4-oxadiazol-2-yl)-5-oxo-2-phenethyl-7,8,9,9a-tetrahydro-5H-pyrido[2,3-a]pyrrolizin-4-yl)thiophene-2-carboxamide] was 67.5 nM; that for `Cc1ccc(CCc2nc3c(c(-c4ccc(C(=O)NCc5ccc(F)c(F)c5)s4)c2-c2nnc(C)o2)C(=O)N2CCC[C@@H]32)nc1` [Compound 6, (S)—N-(3,4-difluorobenzyl)-5-(3-(5-methyl-1,3,4-oxadiazol-2-yl)-2-(2-(5-methylpyridin-2-yl)ethyl)-5-oxo-7,8,9,9a-tetrahydro-5H-pyrido[2,3-a]pyrrolizin-4-yl)thiophene-2-carboxamide] was 674 nM.
On the same count and under the same terms, for `Cc1nnc(-c2c(CCc3ccc(F)cn3)nc3c(c2-c2ccc(C(=O)NCc4ccc(F)c(F)c4)s2)C(=O)N2CCC[C@@H]32)o1` [Compound 8, (S)—N-(3,4-difluorobenzyl)-5-(2-(2-(5-fluoropyridin-2-yl)ethyl)-3-(5-methyl-1,3,4-oxadiazol-2-yl)-5-oxo-7,8,9,9a-tetrahydro-5H-pyrido[2,3-a]pyrrolizin-4-yl)thiophene-2-carboxamide] the value was 3590 nM.
Same read-out and setting: the value for `Cc1nnc(-c2c(CCc3ccc(F)cc3)nc3c(c2-c2ccc(C(=O)N[C@@H]4COc5ccccc54)s2)C(=O)N2CCC[C@@H]32)o1` [Compound 10, N—((S)-2,3-dihydrobenzofuran-3-yl)-5-((S)-2-(4-fluorophenethyl)-3-(5-methyl-1,3,4-oxadiazol-2-yl)-5-oxo-7,8,9,9a-tetrahydro-5H-pyrido[2,3-a]pyrrolizin-4-yl)thiophene-2-carboxamide] was 66.7 nM; that for `Cc1nnc(-c2c(CCc3ccc(F)cc3)nc3c(c2-c2ccc(C(=O)NC4CC(O)c5ccccc54)s2)C(=O)N2CCC[C@@H]32)o1` (stereo partly drawn) [Compound 11, 5-((S)-2-(4-fluorophenethyl)-3-(5-methyl-1,3,4-oxadiazol-2-yl)-5-oxo-7,8,9,9a-tetrahydro-5H-pyrido[2,3-a]pyrrolizin-4-yl)-N-(3-hydroxy-2,3-dihydro-1H-inden-1-yl)thiophene-2-carboxamide] was 48.1 nM.
Turning to `CC(C)c1nnc(-c2c(CCC34CCC(CC3)OC4)nc3c(c2-c2ccc4c(c2)oc(=O)n4Cc2ccc(C#N)c(F)c2)c(=O)n2n3CCC2)o1` [Compound 153, 2-fluoro-4-({6-[10-(5-isopropyl-1,3,4-oxadiazol-2-yl)-11-(2-(2-oxabicyclo[2.2.2]oct-4-yl)ethyl}-7-oxo-2,6,12-triazatricyclo[6.4.0.0^2,6]dodeca-1(12),8,10-trien-9-yl]-2-oxo-1,3-benzoxazol-3-yl}methyl)benzonitrile], the half-maximal effective concentration (EC50) in test [2] turned out to be 12.2 nM; in test [3] it was 0.324 nM.
As to `Cc1cnc(-c2c(CCC34CCC(CC3)OC4)nc3c(c2-c2ccc4c(c2)OCC(=O)N4Cc2ncc(Cl)cc2F)c(=O)n2n3CCC2)o1` [Compound 156], the concentration for a half-maximal effect (EC50) in test [2] is 54.7 nM; in test [3] it was 1.49 nM.
Regarding `Cc1cnc(-c2c(CCC34CCC(CC3)OC4)nc3c(c2-c2ccc4c(c2)OCC(=O)N4Cc2ccc(F)cn2)c(=O)n2n3CCC2)o1` [Compound 157, 9-(4-[(5-fluoro-2-pyridyl)methyl]-3-oxo-2,4-dihydro-1,4-benzoxazin-7-yl}-10-(5-methyl-1,3-oxazol-2-yl)-11-(2-(2-oxabicyclo[2.2.2]oct-4-yl)ethyl}-2,6,12-triazatricyclo[6.4.0.0^2,6]dodeca-1(12),8,10-trien-7-one], the EC50 in test [2] was 270 nM; in test [3], 9.64 nM.
Regarding `Cc1nnc(-c2c(C(C)C)nc3c(c2-c2ccc4c(c2)OCC(=O)N4Cc2ccc(F)cn2)C(=O)N2CCC[C@@H]32)o1` [Compound 158, 7-((2S)-11-isopropyl-10-(5-methyl-1,3,4-oxadiazol-2-yl)-7-oxo-6,12-diazatricyclo[6.4.0.0^2,6]dodeca-1(12),8,10-trien-9-yl}-4-[(5-fluoro-2-pyridyl)methyl]-2,4-dihydro-1,4-benzoxazin-3-one], the EC50 in test [2] stood at 5880 nM; in test [3] it was 242 nM.
Consider `Cc1cnc(-c2c(CCC34CCC(CC3)OC4)nc3c(c2-c2ccc4c(c2)OC(C)(C)C(=O)N4Cc2ccc(F)cn2)c(=O)n2n3CCC2)o1` [Compound 159, 9-(4-[(5-fluoro-2-pyridyl)methyl]-2,2-dimethyl-3-oxo-2,4-dihydro-1,4-benzoxazin-7-yl}-10-(5-methyl-1,3-oxazol-2-yl)-11-(2-(2-oxabicyclo[2.2.2]oct-4-yl)ethyl}-2,6,12-triazatricyclo[6.4.0.0^2,6]dodeca-1(12),8,10-trien-7-one], for which the EC50 turned out to be 70.2 nM in test [2] and 3.67 nM in test [3].
For `Cc1nnc(-c2c(C(C)C)nc3c(c2-c2ccc4c(c2)OC(C)(C)C(=O)N4Cc2ccc(F)cn2)C(=O)N2CC4CC32C4)o1` [Compound 160, 4-[(5-fluoro-2-pyridyl)methyl]-7-[4-isopropyl-5-(5-methyl-1,3,4-oxadiazol-2-yl)-8-oxo-3,9-diazatetracyclo[9.1.1.0^1,9.0^2,7]trideca-2,4,6-trien-6-yl]-2,2-dimethyl-4H-1,4-benzoxazin-3(2H)-one], the EC50 in test [2] came out at 596 nM; in test [3] it was 26.9 nM.
Consider `CCc1nc2c(c(-c3ccc4c(c3)OC(C)(C)C(=O)N4Cc3ccc(F)cn3)c1-c1nnc(C)o1)C(=O)N1CC3CC21C3` [Compound 161, 7-[4-ethyl-5-(5-methyl-1,3,4-oxadiazol-2-yl)-8-oxo-3,9-diazatetracyclo[9.1.1.01, 0.2,1]trideca-2,4,6-trien-6-yl]-4-[(5-fluoro-2-pyridyl)methyl]-2,2-dimethyl-4H-1,4-benzoxazin-3(2H)-one], for which the EC50 in test [2] turned out to be 5380 nM; in test [3], 226 nM.

The values are drawn from US20250051355A1, “COMPOUNDS, COMPOSITIONS, AND METHODS” (ACONCAGUA BIO, INC., priority 2023, published 2025).
